The values below come from US12187662B2, “FOXM1 inhibitor compositions and methods of using the same” (The Board of Trustees of the University of Illinois, priority 2018, dated 2025).

The subject of one data set is MDA-MB-231 cells. The experiment in a line: Cell proliferation assay (WST-1), MDA-MB-231. The class given is cell-based, human. The procedure:
(§1) All cells were tested for mycoplasma using Real-Time PCR Mycoplasma Detection Kit (Akron Biotech, Boca Raton, FL).
(§2) All assays were performed in triplicate.

Another data set relates to MCF7 cells. The experiment in a line: Cell proliferation assay (WST-1), MCF7. Type of data set: cell-based, human. The procedure: as §1, §2
The next data set has as its system DT22 cells. The experiment in a line: Cell proliferation assay (WST-1), DT22. The class given is cell-based, human. How it is done: as §1, §2
The nature of data set [1]: Pharmacokinetic studies in mice after single s.c. or oral dose. The note with it: for half-life / AUC(0-t): female, CD-1, mouse, plasma.
A further data set deals with breast cancer cell lines. The experiment in a line: Proliferation of breast cancer cell lines (panel, line not specified). Type of data set: cell-based, human. The note with it: cell line not specified or several lines. How it is done:
as §1, §2

[2] abbreviates: inhibition of cell proliferation, read-out: IC50 MCF7.
Where [3] appears, read: Homo sapiens, DT-22, inhibition of cell proliferation.
Where [4] appears, read: Homo sapiens, MCF7, inhibition of cell proliferation, read-out: IC50 MCF7.
The mark [5] stands for this setting: Homo sapiens, MDA-MB-231, inhibition of cell proliferation, read-out: IC50 MDA-MB-231.
The mark [6] stands for this setting: Homo sapiens, MDA-MB-231, read-out: IC50 MDA-MB-231.
The mark [7] stands for this setting: sc, 60 mg/kg, PK s.c. AUC0-48, mice, 60 mg/kg s.c.
Setting [8] is: Homo sapiens, MCF7, read-out: IC50 MCF7.

Read-outs that look alike come from different tables or passages of the source. Bounds are passed on as bounds.

With “6-(4-((Z)-((5S,7S)-adamantan-2-ylidene)(4-chlorophenyl)methyl)phenoxy)-N,N-diethylhexan-1-amine [NB-54]”, the IC50 in the data set with MDA-MB-231 cells (inhibition of cell proliferation, read-out: IC50 MDA-MB-231) was 4 µM; in the data set with MCF7 cells (setting [2]), 4 µM.

Regarding `CCN(CC)CCCCCCOc1ccc(C(=C2C3CC4CC(C3)CC2C4)c2ccc(O)cc2)cc1` [NB-41, 4-((E)-((5R,7R)-adamantan-2-ylidene)(4-((6-(diethylamino)hexyl)oxy)phenyl)methyl)phenol], the IC50 with DT22 cells (setting [3]) is 1.5 to 2 µM; with DT22 cells (inhibition of cell proliferation, read-out: IC50 DT-22), 2 µM; in the data set with MCF7 cells (setting [4]), 1.5 to 2 µM; with MCF7 cells (setting [2]) it was 1.5 µM. Moreover, the half-life was 15.1 h in data set [1] (po, 40 mg/kg) and 22.5 h in data set [1] (sc, 40 mg/kg). Besides, the AUC(0-t) stood at 5.6 µM·h in data set [1] (po, 40 mg/kg, PK p.o. AUC0-48, mice, 40 mg/kg p.o.) and 13.3 µM·h in data set [1] (sc, 40 mg/kg, PK s.c. AUC0-48, mice, 40 mg/kg s.c.).

As for `CCN(CC)CCOCCOCCOc1ccc(C(=C2C3CC4CC(C3)CC2C4)c2ccc(OCCOCCOCCN(CC)CC)cc2)cc1` [NB-53, 2,2′-(((((((((5r,7r)-adamantan-2-ylidene)methylene)bis(4,1-phenylene))bis(oxy))bis(ethane-2,1-diyl))bis(oxy))bis(ethane-2,1-diyl))bis(oxy))bis(N,N-diethylethan-1-amine)], the IC50 is below 5 µM with MDA-MB-231 cells (setting [5]) and 3.5 µM in the data set on MCF7 cells (setting [4]).

Take `CN1CCN(CCCCCCOc2ccc(C(=C3C4CC5CC(C4)CC3C5)c3ccc(OCCCCCCN4CCN(C)CC4)cc3)cc2)CC1` [NB-66, 4,4′-((((((5r,7r)-adamantan-2-ylidene)methylene)bis(4,1-phenylene))bis(oxy))bis(hexane-6,1-diyl))bis(1-methylpiperazine)]: the “PK p.o. AUC0-48” value in data set [1] (mice, 60 mg/kg p.o.) is reported as “too low to measure”. In data set [1] (mice, 60 mg/kg s.c.), the “PK s.c. AUC0-48” value turned out to be 6.1 µM·h and the “PK s.c. t1/2” value worked out at 45.6 h. In addition, in the data set on breast cancer cell lines, the “IC50 for inhibition of proliferation of breast cancer cell lines” value is reported as “submicromolar”. The IC50 in the data set with MCF7 cells (setting [4]) stood at 0.8 µM.

For the molecule `c1cc(C(c2ccc(OCCCCCCN3CCCCC3)cc2)=C2[C@H]3C[C@@H]4C[C@@H](C[C@H]2C4)C3)ccc1OCCCCCCN1CCCCC1` [NB-70, 1,1′-((((((5r,7r)-Adamantan-2-ylidene)methylene)bis(4,1-phenylene))bis(oxy))bis(hexane-6,1-diyl))dipiperidine], the IC50 is 0.9 µM in the data set on MDA-MB-231 cells (setting [6]) and 0.7 µM with MCF7 cells (setting [8]). Moreover, the half-life in data set [1] (po, 60 mg/kg) is 90.9 h. The AUC(0-t) in data set [1] (po, 60 mg/kg, PK p.o. AUC0-48, mice, 60 mg/kg p.o.) came out at 6 µM·h; in data set [1] (setting [7]), 10.2 µM·h.

In the case of `C[N+]1(CCCCCCOc2ccc(C(c3ccc(OCCCCCC[N+]4(C)CCCCC4)cc3)=C3C4C[C@H]5C[C@@H](C4)C[C@H]3C5)cc2)CCCCC1` [NB-71, 1,1′-((((((5r,7r)-adamantan-2-ylidene)methylene)bis(4,1-phenylene))bis(oxy))bis(hexane-6,1-diyl))bis(1-methylpiperidin-1-ium) diodide], the results for the IC50 in the data set on MDA-MB-231 cells (setting [6]), with DT22 cells (setting [3]) and in the data set on MCF7 cells (setting [8]) were 0.5 µM, 0.8 µM and 1.1 µM, respectively. The half-life was 25 to 40 h in data set [1] (sc) and 119 h in data set [1] (sc, 60 mg/kg). Also, the AUC(0-t) in data set [1] (setting [7]) worked out at 364 µM·h. Further, the “Blood levels after oral administration” value in data set [1] (mice, oral, doses of FIGS. 6A-6B) is “very low levels”. In addition, the “Blood levels after s.c. injection” value in data set [1] (mice, s.c., doses of FIGS. 6A-6B) is recorded as “very high blood levels”.

Regarding `c1cc(C(=C2C3CC4CC(C3)CC2C4)c2ccc(OCCCCCCN3CCCCCC3)cc2)ccc1OCCCCCCN1CCCCCC1` [NB-72, 1,1′-((((((5r,7r)-Adamantan-2-ylidene)methylene)bis(4,1-phenylene))bis(oxy))bis(hexane-6,1-diyl))bis(azepane)], the IC50 in the data set with DT22 cells (setting [3]) and in the data set with MCF7 cells (setting [8]) was 0.7 µM in each case.

For the molecule `c1cc(C(=C2C3CC4CC(C3)CC2C4)c2ccc(OCCCCCCCCN3CCCCCC3)cc2)ccc1OCCCCCCCCN1CCCCCC1` [NB-80, 1,1′-((((((5r,7r)-adamantan-2-ylidene)methylene)bis(4,1-phenylene))bis(oxy))bis(octane-8,1-diyl))bis(azepane)], the IC50 in the data set on DT22 cells (setting [3]) was determined as 3.4 µM; in the data set on MCF7 cells (setting [4]), 2.7 µM.

Turning to `C[N+]1(CCCCCCCCOc2ccc(C(=C3C4CC5CC(C4)CC3C5)c3ccc(OCCCCCCCC[N+]4(C)CCCCCC4)cc3)cc2)CCCCCC1.[I-].[I-]` [NB-81, 1,1′-((((((5r,7r)-adamantan-2-ylidene)methylene)bis(4,1-phenylene))bis(oxy))bis(octane-8,1-diyl))bis(1-methylazepan-1-ium) diiodide], the IC50 was 1.6 µM in the data set with DT22 cells (setting [3]) and 0.6 µM in the data set on MCF7 cells (setting [4]). Also, the “Outcome of animals in PK study” value in data set [1] (mice, 40 mg/kg s.c adm.) is “Died at 40 mg/kg s.c adm”.

As to `C[N+]1(CCCCOc2ccc(C(=C3C4CC5CC(C4)CC3C5)c3ccc(OCCCC[N+]4(C)CCCCC4)cc3)cc2)CCCCC1` [NB-86, 1-(4-(4-((E)-((5R,7R)-adamantan-2-ylidene)(4-(4-(1-metheyliumylpiperidin-1-ium-1-yl)butoxy)phenyl)methyl)phenoxy)butyl)-1-methylpiperidin-1-ium diiodide], the IC50 in the data set with MDA-MB-231 cells (setting [5]) is 1.1 µM; in the data set with DT22 cells (setting [3]), 1.9 µM; with MCF7 cells (setting [4]), 1.4 µM.

For the molecule `C[N+]1(CCCCOc2ccc(C(=C3C4CC5CC(C4)CC3C5)c3ccc(OCCCC[N+]4(C)CCCCCC4)cc3)cc2)CCCCCC1` [NB-87, 1,1′-((((((5r,7r)-adamantan-2-ylidene)methylene)bis(4,1-phenylene))bis(oxy))bis(butane-4,1-diyl))bis(1-methylazepan-1-ium) diiodide], the values for the IC50 with MDA-MB-231 cells (setting [5]), in the data set on DT22 cells (setting [3]) and in the data set with MCF7 cells (setting [4]) were 0.9 µM, 1.5 µM and 1.7 µM, respectively.

Turning to `C[N+]1(CCCCCOc2ccc(C(=C3C4CC5CC(C4)CC3C5)c3ccc(OCCCCC[N+]4(C)CCCCC4)cc3)cc2)CCCCC1` [NB-88, 1,1′-((((((5r,7r)-adamantan-2-ylidene)methylene)bis(4,1-phenylene))bis(oxy))bis(pentane-5,1-diyl))bis(1-methylpiperidin-1-ium) diiodide], the IC50 in the data set with MDA-MB-231 cells (setting [5]) was 0.7 µM; with DT22 cells (setting [3]), 1.2 µM; in the data set on MCF7 cells (setting [4]), 1.7 µM.

Take `C[N+]1(CCCCCOc2ccc(C(=C3C4CC5CC(C4)CC3C5)c3ccc(OCCCCC[N+]4(C)CCCCCC4)cc3)cc2)CCCCCC1` [NB-89, 1,1′-((((((5r,7r)-adamantan-2-ylidene)methylene)bis(4,1-phenylene))bis(oxy))bis(pentane-5,1-diyl))bis(1-methylazepan-1-ium) diiodide]: the IC50 in the data set with MDA-MB-231 cells (setting [5]) turned out to be 0.5 µM; in the data set on DT22 cells (setting [3]) it was 1.1 µM; in the data set on MCF7 cells (setting [4]), 0.6 µM; with MCF7 cells (setting [2]) it was 0.7 µM.

As for `CC[N+](C)(CCO)CCCCCCOc1ccc(C(=C2C3CC4CC(C3)CC2C4)c2ccc(OCCCCCC[N+](C)(CC)CCO)cc2)cc1` (stereo not shown) [NB-134, 6,6′-(((((5r,7r)-adamantan-2-ylidene)methylene)bis(4,1-phenylene))bis(oxy))bis(N-ethyl-N-(2-hydroxyethyl)-N-methylhexan-1-aminium) diiodide], the IC50 is 1.5 µM with DT22 cells (setting [3]) and 1.1 µM in the data set with MCF7 cells (setting [4]).
